Among the data in ChEMBL document CHEMBL1126625, “7-Azetidinylquinolones as antibacterial agents. Synthesis and structure-activity relationships” (J Med Chem, 1993) are MIC values, retold here.

By MIC is commonly meant the lowest concentration found to suppress growth. Lower therefore signals greater potency.

Common to all, as to format: functional
The subject of test [1] is Proteus vulgaris. As to the kind of experiment: Minimum inhibitory concentration (MIC) preventing growth of Proteus vulgaris.
Test [2] relates to Bacillus subtilis. As to the kind of experiment: Minimum inhibitory concentration (MIC) preventing growth of Bacillus subtilis.
Test [3] relates to Staphylococcus epidermidis. In words: Minimum inhibitory concentration (MIC) preventing growth of Staphylococcus epidermidis.
Test [4] deals with Staphylococcus aureus. As to the kind of experiment: Minimum inhibitory concentration (MIC) preventing growth of […].
For test [5], the system named is Bacillus cereus. As to the kind of experiment: Minimum inhibitory concentration (MIC) preventing growth of Bacillus cereus.
Test [6] concerns Klebsiella pneumoniae. As to the kind of experiment: Minimum inhibitory concentration (MIC)preventing growth of Klebsiella pneumoniae.
Test [7] relates to Escherichia coli. As to the kind of experiment: Minimum inhibitory concentration (MIC)preventing growth of Escherichia coli.
For test [8], the system named is Enterobacter cloacae. As to the kind of experiment: Minimum inhibitory concentration (MIC)preventing growth of Enterobacter cloacae.
Test [9] relates to Pseudomonas aeruginosa. As to the kind of experiment: Minimum inhibitory concentration (MIC)preventing growth of Pseudomonas aeruginosa.
Test [10] has as its system Morganella morganii. As to the kind of experiment: Minimum inhibitory concentration (MIC) preventing growth of Morganella morganii.
Test [11] deals with Enterococcus faecalis. In words: Minimum inhibitory concentration (MIC) preventing growth of Streptococcus faecalis ATCC 10541.

≈ marks a conversion by molar mass, not a printed value.

Take `CC1(N)CN(c2c(F)c(N)c3c(=O)c(C(=O)O)cn(-c4ccc(F)cc4F)c3c2F)C1`: the MIC was found to be 0.25 µg/mL (≈ 0.573 µM) in [1]; 0.06 µg/mL (≈ 0.137 µM) in [2]; 0.06 µg/mL (≈ 0.137 µM) in [3]; 0.06 µg/mL (≈ 0.137 µM) in test [4]; 0.06 µg/mL (≈ 0.137 µM) in [5]; 0.25 µg/mL (≈ 0.573 µM) in test [6]. The MIC in test [7] is 0.12 µg/mL (≈ 0.275 µM); in [8], 0.06 µg/mL (≈ 0.137 µM); in test [9], 0.5 µg/mL (≈ 1.15 µM); in test [10], 0.12 µg/mL (≈ 0.275 µM); in test [11] it was 0.03 µg/mL (≈ 0.0687 µM).
For `Nc1c(F)c(N2CC(O)C2)c(F)c2c1c(=O)c(C(=O)O)cn2C1CC1`, the MIC in [1] was 0.12 µg/mL (≈ 0.342 µM); in [2] it was 0.015 µg/mL (≈ 0.0427 µM); in test [3], 0.06 µg/mL (≈ 0.171 µM); in [4], 0.06 µg/mL (≈ 0.171 µM); in test [5], 0.015 µg/mL (≈ 0.0427 µM); in [6], 0.015 µg/mL (≈ 0.0427 µM). The MIC is 0.06 µg/mL (≈ 0.171 µM) in test [7]; 0.12 µg/mL (≈ 0.342 µM) in test [8]; 2 µg/mL (≈ 5.69 µM) in test [9]; 0.12 µg/mL (≈ 0.342 µM) in test [10]; 2 µg/mL (≈ 5.69 µM) in test [11].
For `CC1(N)CN(c2c(F)cc3c(=O)c(C(=O)O)cn(-c4ccc(F)cc4F)c3c2F)C1`, the MIC in [1] is 0.5 µg/mL (≈ 1.19 µM); in test [2] it was 0.25 µg/mL (≈ 0.593 µM); in test [3], 0.5 µg/mL (≈ 1.19 µM); in test [4], 0.25 µg/mL (≈ 0.593 µM); in [5] it was 0.5 µg/mL (≈ 1.19 µM); in test [6], 0.5 µg/mL (≈ 1.19 µM). Moreover, the MIC in [7] came out at 0.25 µg/mL (≈ 0.593 µM); in [8], 0.25 µg/mL (≈ 0.593 µM); in test [9], 2 µg/mL (≈ 4.75 µM); in test [10], 0.5 µg/mL (≈ 1.19 µM); in [11], 0.25 µg/mL (≈ 0.593 µM).
In the case of `O=C(O)c1cn(C2CC2)c2c(F)c(N3CCC3)c(F)cc2c1=O`, the MIC is 0.25 µg/mL (≈ 0.781 µM) in [1]; 0.015 µg/mL (≈ 0.0468 µM) in test [2]; 0.12 µg/mL (≈ 0.375 µM) in test [3]; 0.25 µg/mL (≈ 0.781 µM) in test [4]; 0.25 µg/mL (≈ 0.781 µM) in test [5]; 0.25 µg/mL (≈ 0.781 µM) in [6]. Besides, the MIC is 0.25 µg/mL (≈ 0.781 µM) in test [7]; 0.25 µg/mL (≈ 0.781 µM) in test [8]; 2 µg/mL (≈ 6.24 µM) in [9]; 0.25 µg/mL (≈ 0.781 µM) in [10]; 1 µg/mL (≈ 3.12 µM) in [11].
As for `CCNCC1(C)CN(c2c(F)cc3c(=O)c(C(=O)O)cn(C4CC4)c3c2F)C1`, the MIC in test [1] was 0.25 µg/mL (≈ 0.639 µM); in [2] it was 0.12 µg/mL (≈ 0.307 µM); in test [3], 0.25 µg/mL (≈ 0.639 µM); in test [4] it was 0.25 µg/mL (≈ 0.639 µM); in test [5], 0.25 µg/mL (≈ 0.639 µM); in test [6] it was 0.25 µg/mL (≈ 0.639 µM). Further, the minimal inhibitory concentration (MIC) in [7] is 0.25 µg/mL (≈ 0.639 µM); in test [8], 0.25 µg/mL (≈ 0.639 µM); in [9] it was 2 µg/mL (≈ 5.11 µM); in test [10] it was 0.25 µg/mL (≈ 0.639 µM); in test [11], 1 µg/mL (≈ 2.55 µM).
For the compound `CCC1(O)CN(c2c(F)cc3c(=O)c(C(=O)O)cn(C4CC4)c3c2F)C1`, the MIC in [1] is 0.25 µg/mL (≈ 0.686 µM); in [2], 0.06 µg/mL (≈ 0.165 µM); in test [3], 0.25 µg/mL (≈ 0.686 µM); in [4], 0.5 µg/mL (≈ 1.37 µM); in test [5], 0.5 µg/mL (≈ 1.37 µM); in test [6], 0.12 µg/mL (≈ 0.329 µM). The MIC in test [7] amounted to 0.25 µg/mL (≈ 0.686 µM); in test [8] it was 0.5 µg/mL (≈ 1.37 µM); in test [9], 2 µg/mL (≈ 5.49 µM); in test [10], 0.5 µg/mL (≈ 1.37 µM); in test [11], 1 µg/mL (≈ 2.74 µM).
As to `CCn1cc(C(=O)O)c(=O)c2c(N)c(F)c(N3CC(N)C3)c(F)c21`, the MIC in test [1] worked out at 0.5 µg/mL (≈ 1.48 µM); in test [2], 2 µg/mL (≈ 5.91 µM); in [3], 0.5 µg/mL (≈ 1.48 µM); in test [4], 0.5 µg/mL (≈ 1.48 µM); in test [5], 0.25 µg/mL (≈ 0.739 µM); in [6] it was 0.25 µg/mL (≈ 0.739 µM). Also, the MIC in [7] was determined as 0.12 µg/mL (≈ 0.355 µM); in test [8], 0.12 µg/mL (≈ 0.355 µM); in test [9], 1 µg/mL (≈ 2.96 µM); in test [10], 0.12 µg/mL (≈ 0.355 µM); in [11] it was 0.25 µg/mL (≈ 0.739 µM).
As to `CC1(N)CN(c2c(F)cc3c(=O)c(C(=O)O)cn(C(C)(C)C)c3c2F)C1`, the MIC in test [1] amounted to 1 µg/mL (≈ 2.74 µM); in [2] it was 0.12 µg/mL (≈ 0.328 µM); in test [3] it was 0.5 µg/mL (≈ 1.37 µM); in test [4], 0.5 µg/mL (≈ 1.37 µM); in test [5] it was 0.5 µg/mL (≈ 1.37 µM); in test [6], 0.06 µg/mL (≈ 0.164 µM). Besides, the MIC was 0.25 µg/mL (≈ 0.684 µM) in test [7]; 0.25 µg/mL (≈ 0.684 µM) in test [8]; 2 µg/mL (≈ 5.47 µM) in test [9]; 0.5 µg/mL (≈ 1.37 µM) in test [10]; 2 µg/mL (≈ 5.47 µM) in [11].
For `CCNCC1(C)CN(c2cc3c(cc2F)c(=O)c(C(=O)O)cn3C2CC2)C1`, the MIC in [1] worked out at 0.25 µg/mL (≈ 0.669 µM); in [2], 0.12 µg/mL (≈ 0.321 µM); in test [3], 0.5 µg/mL (≈ 1.34 µM); in [4], 0.25 µg/mL (≈ 0.669 µM); in test [5], 0.12 µg/mL (≈ 0.321 µM); in [6] it was 0.5 µg/mL (≈ 1.34 µM). Besides, the MIC in test [7] was found to be 0.12 µg/mL (≈ 0.321 µM); in [8], 0.25 µg/mL (≈ 0.669 µM); in [9], 4 µg/mL (≈ 10.7 µM); in [10] it was 0.5 µg/mL (≈ 1.34 µM); in [11], 1 µg/mL (≈ 2.68 µM).
Consider `CN(C)C1CN(c2cc3c(cc2F)c(=O)c2c(=O)[nH]sc2n3C2CC2)C1`, for which the MIC in [1] came to 0.06 µg/mL (≈ 0.16 µM); in test [2], 0.03 µg/mL (≈ 0.0801 µM); in test [3], 0.06 µg/mL (≈ 0.16 µM); in test [4] it was 0.06 µg/mL (≈ 0.16 µM); in test [5], 0.12 µg/mL (≈ 0.32 µM); in test [6] it was 0.06 µg/mL (≈ 0.16 µM). In addition, the MIC in test [7] was found to be 0.03 µg/mL (≈ 0.0801 µM); in test [8], 0.06 µg/mL (≈ 0.16 µM); in [9] it was 1 µg/mL (≈ 2.67 µM); in [10] it was 0.06 µg/mL (≈ 0.16 µM); in test [11], 0.5 µg/mL (≈ 1.34 µM).
